SMILES strings stand for the structures.

Experiment [1] has as its system STZ-induced DKD rats. In words: Blood glucose and urine protein in STZ-induced DKD rats. The format is in vivo, rat. On the procedure:
(§1) SD rats (200±10 g) were used as model animals, which were fasted for 12 h before injection. STZ was dissolved in citrate buffer at 1% concentration, and rats were fasted and intraperitoneally injected with 55 mg/kg STZ and placed in the cage, the rats being ensured with adequate water intake for 24 h. STZ injections need to be fast and complete within 10 minutes of injection. The normal control group was injected with an equal volume of pH 4.5 citric acid-sodium citrate buffer. The state of the animals (multiple drinking and polyuria) was observed. After 3 weeks of STZ injection, blood was collected from the tail vein, and fasting blood glucose ≥16.7 mmol/L was measured as the standard for diabetic nephropathy in rats.
(§2) DKD rats were randomly assigned to 6 groups and given with different drugs. After 6 weeks of administration, the experiment was terminated and the protective effect of the drug on DKD rats was observed.
During the experiment, the blood glucose of the rats was monitored after the completion of the modeling and after the completion of the administration, and urine protein was collected once at 24 hour.

The test system of experiment [2] is STZ-induced DKD rats. In words: Kidney index of STZ-induced DKD rats. The conditions noted are these: after 6 weeks of administration. The experiment is classed as in vivo, rat. On the procedure:
as §1, §2
After 6 weeks of administration, the kidney tissue was uniformly separated by an autoclave surgical instrument, and washed with normal saline. After the filter paper was blotted, the fine balance was weighed, and then stored in a refrigerator at −80° C. for use. Kidney index (relative to kidney weight) is kidney weight (mg)/body weight (g)[…].

Experiment [3] deals with STZ-induced DKD rats. In words: Masson staining, interstitial fibrosis index, STZ-induced DKD rats. The experiment is classed as in vivo, rat. On the procedure: Before the injection, the rats were fasted for 12 hours without water. After weighing, the rats were injected with 55 mg/kg STZ intraperitoneally (STZ needs to be injected quickly, and the injection was completed within 10 minutes), and then returned to the cage to ensure that the rats had sufficient drinking water for 24 hours. Rats were injected with an equal volume of citrate buffer (pH 4.5). After STZ injection for 3 weeks, blood was collected from the tail vein, and blood glucose ≥16.7 mmol/L was used as the criteria for the standard of the rats.
The route of administration is intragastric administration. TBN was administered twice a day (fixed at 9:00-10:00 am and 3:00-4:00 pm), and Losartan was administered once a day (fixed at 9:00-10:00 am) continuously for 6 weeks.
At the end of the experiment, the kidney tissues were quickly separated, fixed with 4% paraformaldehyde and embedded in paraffin, serially sliced, 5 μm each, dried at 37° C. for 1 h, and then subjected to Masson staining. The process is briefly as follows: paraffin sections are taken out of the 65° C. oven and immediately put in xylene for dewaxing and gradient alcohol rehydration, according to the kit instructions, add reagent A (a mixture of equal amounts of A1 and A2) for dyeing for 8 min; then use Reagent B differentiates and reagent C turns blue; reagent D stains for 7 min; reagent E washes for 1 min; reagent F washes for 1 min; reagent G stains for 1 min; dehydrated with 95% ethanol and absolute ethanol, transparent xylene, sealed with neutral gum piece.

Experiment [4] has as its system db/db mice. In words: Serum iron content of db/db mice. The format is in vivo, mouse. More on the design: iron content in the serum: unit not given here. Particulars: for iron content in the serum: 6 weeks, db/db model group 28.13±4.46. From the text:
db/db mice are congenital obese type 2 DKD mice with spontaneous mutations in the leptin receptor (Leptin receptor, Lepr) due to a point mutation in the leptin receptor gene GT located on chromosome 4. The course of polyphagia, polyuria, diabetes and hyperglycemia is similar to that of humans, and it is currently the most widely used type 2 spontaneous animal model of DKD. The db/db mice have a series of complications with the aggravation of diabetes. The main pathological changes of renal tissue are the expansion of the glomerular mesangial interstitium, the thickening of the glomerular basement membrane, and the excessive accumulation of extracellular matrix. However, the glomerular mesangium of db/db mice changes relatively slowly, and the glomerular mesangium will not be dissolved or nodular glomerulosclerosis, and there is no progressive renal insufficiency.
Six-week-old db/db mice were purchased, and start the administration after adaptive feeding for 1 week (i.e., 7-week-old). TBN is administered twice a day (fixed by starting from 9:00-10:00 am and 3:00-4:00 pm, with an interval of 6 hours), and the positive control drug Losartan was administered once a day (fixed at 9:00-10:00 am) for 6 weeks.
At the end of the experiment, serum iron content was measured by using automatic biochemical analyzer.

For experiment [5], the system named is db/db mice. In words: Urinary albumin/creatinine ratio in db/db mice, TBN alone and in combination. The format is in vivo, mouse. The conditions noted are these: TBN 30 mg/kg, Losartan 10 mg/kg, TBN+Losartan (FIG. 17). The procedure: Grouping and dosing are the same as in Example 9. At the end of the experiment, 24 h urine samples were collected, antiseptic treatment was performed to all urine specimens with toluene, 24 h urine was centrifuged to remove precipitation and placed in a 1.5 mLEP tube and then placed in a refrigerator at −20° C. for later use, urinary albumin content was measured with ELISA kits, urine creatinine levels were detected by use of an automatic biochemical analyzer, and the ratio of both was calculated. The results as shown in FIG. 19 indicate that the ratio of urinary microalbumin to creatinine in DB/DB group was higher than that in wt/wt group, and the db/db mice 24 h urinary albumin creatinine ratio decreased in TBN group, losartan group and TBN-losartan combination group. Referring to this method, metformin (150 mg/kg, qd), and HIF-PH inhibitor roxadustat (10 mg/kg, once 2 every days) were given via oral administration, the combination groups of TBN with respectively metformin and roxadustat also reduce 24 h urinary albumin creatinine ratio.

Experiment [6] has as its system STZ-induced SHR rats. In words: PAS staining, glomerular hardening of STZ-induced SHR rats. The format is in vivo, rat. The conditions noted are these: 60 mg/kg. On the procedure: 6 W-age SHR rats were abstained from food but not water for 12 h before injection, and then intraperitoneally injected with 55 mg/kg STZ after weighing (STZ required for fast injection, to be completed within 10 min), then put back to the cage to ensure that rat has sufficient drinking water in the period of 24 h, and the rats of normal control group were injected with citric acid buffer (pH 4.5) in the same volume. After 3 weeks of STZ injection, retinal venous blood was collected, and blood glucose ≥16.7 mmol/L was used as a molding standard, where the model of SHR rats that meet the above criteria is considered successful.
The route of administration is intragastrical, TBN is administered twice a day (fixed at 9:00-10:00 am and 3:00-4:00 pm), and Losartan is administered once a day (fixed at 9:00-10:00 am), continuously for 6 weeks.
The process is the same as in Example 9.

Experiment [7] relates to spontaneous diabetic model in rhesus monkeys. In words: Spontaneous diabetic model in rhesus monkeys, serum EPO and iron. The format is in vivo.

As for `Cc1nc(C)c(/C=[N+](\[O-])C(C)(C)C)nc1C` [TBN], the “urinary protein content in urine” value in experiment [1] (24 hour urine, DKD rats) is listed as “significantly reduced”. Further, the blood glucose result in experiment [1] (after 6 weeks of treatment) was “significantly decreased”. For the same molecule, the kidney index entry in experiment [2] is on record as “significantly reduced”. Further, the interstitial fibrosis index entry in experiment [3] (60 mg/kg, P<0.01) was “improved the most significantly”; in experiment [3] (TBN treatment groups (10, 30, 60 mg/kg), dose-dependent) it was “decreased”. Moreover, the “iron content in the serum” value in experiment [4] (10 mg/kg) came to 30.84±5.92; in experiment [4] (30 mg/kg), 36.20±11.89. In addition, the “effect of increasing iron ions compared with positive control drug” value in experiment [4] (each dose group of TBN vs Losartan) is listed as “stronger than the positive control drug group”. In addition, the “24 h urinary albumin creatinine ratio” value in experiment [5] is given as “decreased”. Moreover, in experiment [6], the “degree of glomerular hardening (PAS) vs SHR-STZ group” value is “significantly lower”. In addition, the “serum EPO content” value in experiment [7] is given as “increase”. Moreover, the serum iron content entry in experiment [7] is given as “increase”.

Source of the values: patent US12377095B2, “Use of ligustrazine nitrone derivatives in treatment and prevention of diabetic complication diseases” (QINGDAO HAILAN PHARMACEUTICALS CO., LTD., priority 2019, dated 2025).
